The values below are quoted from earlier work in US20180353540A1, “Pharmaceutical composition for treating leukemia and preparation method thereof” (Yi Fan Pharmaceutical Academy (Beijing) Co., Ltd., priority 2015, published 2018).

The subject of one data set is ME180 cells. The settings on record: non-toxic dose 0.5 μg/ml.
The subject of data set [1] is SGC7901 human gastric adenocarcinoma cells.
In another data set the test system is HL-6 cells. The settings on record: non-toxic dose 0.5 μg/ml.

In the case of `CC1=C(/C=C/C(C)=C/C=C/C(C)=C/C(=O)O)C(C)(C)CCC1` [ATRA, all-trans retinoic acid], the “induced differentiation effect on ME180 cells” value in the data set with ME180 cells is on record as “better induced differentiation effects”.
Regarding `Cc1coc2c1C(=O)C(=O)c1c-2ccc2c1CCCC2(C)C` [tanshinone IIA], the “growth of SGC7901 human gastric adenocarcinoma cells in vitro” value in data set [1] is recorded as “significantly inhibits the growth”. Also, the “expression of c-myc and H-ras oncogenes (RNA dot blot hybridization)” value with ME180 cells (ME180 cell line) was “significantly reduced”. Besides, in the data set on ME180 cells, the “induced differentiation effect on ME180 cells” value is on record as “better induced differentiation effects”. The “effect on HL-6 cells (differentiation, maturation, apoptosis)” value in the data set with HL-6 cells is “can induce differentiation and maturation of tumor cells, accompanied by apoptosis”.
